In one assay the test system is HIV1 IIIb. In words: microbe, parasite or virus in culture. The assay is classed as cell-based. The settings on record: Human immunodeficiency virus 1, IIIB; for viability at 0.1 µg/mL: 0.1 ug/ml; for viability at 1 µg/mL: 1 ug/ml; for viability at 10 µg/mL: 10 ug/ml; for viability at 56.7 µg/mL: 56.7 ug/ml; for viability at 48.4 µg/mL: 48.4 ug/ml; for viability at 2.4 µg/mL: 2.4 ug/ml. The source says: In-vitro Screening Anti--HIV XTT Assay
This assay, which is available to the public by the National Cancer Institute, utilizes colorimetry based on the production of a colored formazin from a tetrazolium salt by viable cells, to develop a safe, rapid and quantitative measure of HIV cytopathology. The assay is a modification of the previously described screening method for the detection of anti-tumor drug cytotoxicity (D. A. Scudiero, et al, Cancer Res, 48, 4827-4833 (1988)). It involves the plating of susceptible human "host" cells with and without virus in microculture plates, adding various concentrations of the respective test compounds, incubating the plates for seven days, during which time infected, non-drug treated control cells are largely or totally destroyed by the virus. The number of remaining viable cells are determined utilizing a calorimetric endpoint. A beneficial antiviral effect is indicated by a response % grater than the virus kill %, with 100% being optimal.
Anti-viral effect: Response (Viable Cells, determined by colorometric
absorbance of formazan dye produced) as % of uninfected controls
Virus Source: HIV1 IIIb; C, Virus producing H9 cells; V, cell free virus
Virus Kill: Infected untreated cells as % of uninfected cell controls
*: Culture redosed with compound after 3 days

The next assay relates to HIV-2 protease. In words: HIV protease cleavage of nonapeptide (HPLC). The assay is classed as biochemical. The settings on record: 0.5 μl of 10 μg/μl inhibitor in DMSO per 10 μl reaction; pH 6.5, room temperature; pentapeptide product relative to DMSO control; sampled at ca. 16 and 40 hr (time not given). Here is the method: Activity Against HIV Protease
The assay for proteolyic activity is a modified version of that previously described by Copeland et al., Gene Anal. Tech., 5:109-115 (1988). For each assay to be performed 2 microliters of protease solution (ca. 100 ng) is added to 3 μg of nonapeptide (Val-Ser-Gln-Asn-Tyr-Pro-Ile-Val-Gln-NH2) in 8 μl of 200 mM sodium phosphate, 1 M NaCl, 5% glycerol, 0.25% Nonidet-40, at pH 6.5. This affords a stock solution containing 10 μl per number of reactions. This stock is aliquoted out in 10 μl portions to which 0.5 μl of DMSO (a control is run with each set of assays to compensate for minor experimental variations) or a DMSO solution containing 10 μg/μl of an inhibitor, i.e., any one of the compounds of the present invention, is added. The reactions were incubated at room temperature and 4 μl portions were removed at ca. 16 and 40 hr. intervals. HPLC analysis was performed on a 4.6×250 mm Lichrosorb RP-18 column eluted with a gradient of 0-40% acetonitrile in water (containing 0.05% TFA) over 30 min monitoring absorbance at 206 nm. Progress of the enzymatic cleavage was followed by monitoring the appearance of the pentapeptide (Val-Ser-Gln-Asn-Tyr-OH) cleavage product. The activity is expressed as the amount of the pentapeptide (Val-Ser-Gln-Asn-Tyr-OH) observed relative to the control reaction for that set of assays.
Inhibition of HIV-2 protease

[1] abbreviates: 168 h, read-out: Antiviral Effect (viable cells as % of uninfected controls), run 6, source V (cell free virus), virus kill 26.0%.

SMILES strings stand for the structures. Read-outs that look alike come from different tables or passages of the source.

As for `OC[C@@H]1O[C@@H]1COCc1ccccc1` [Example 13, (2S-cis)-3-(Benzyloxymethyl)oxirane Methanol], the viability at 0.1 µg/mL came out at 50% with HIV1 IIIb (168 h, read-out: Antiviral Effect (viable cells as % of uninfected controls), run 4, source V (cell free virus), virus kill 55.0%); 52.5% with HIV1 IIIb (168 h, read-out: Antiviral Effect (viable cells as % of uninfected controls), run 5, source V (cell free virus), virus kill 27.0%); 22.1% with HIV1 IIIb (H9, 168 h, read-out: Antiviral Effect (viable cells as % of uninfected controls), run 1, source C (virus producing H9 cells), virus kill 21.0%). Besides, the viability at 4.4 µg/mL in the assay on HIV1 IIIb (168 h, read-out: Antiviral Effect (viable cells as % of uninfected controls), run 6, 4.4 ug/ml, source V (cell free virus), virus kill 24.0%) was 28.4%. Further, in the assay with HIV1 IIIb (168 h, read-out: Antiviral Effect (viable cells as % of uninfected controls), run 7*, 0.44 ug/ml, source V (cell free virus), virus kill 27.0%, culture redosed with compound after 3 days), the viability at 0.44 µg/mL was found to be 30.1%. The viability at 1 µg/mL in the assay on HIV1 IIIb (H9, 168 h, read-out: Antiviral Effect (viable cells as % of uninfected controls), run 2, source C (virus producing H9 cells), virus kill 13.0%) turned out to be 15.7%; with HIV1 IIIb (H9, 168 h, read-out: Antiviral Effect (viable cells as % of uninfected controls), run 3, source C (virus producing H9 cells), virus kill 11.0%), 10.2%. Moreover, the “Percent Control Cleavage of Nonapeptide HIV-1 Cleavage Site Fragment” value (from here on “Percent Control Cleavage”) with HIV-2 protease stood at 81%.

Take `OC[C@H]1O[C@H]1COCc1ccccc1` [Example 14, (2R-cis)-3-(Benzyloxymethyl)oxirane Methanol]: the viability at 1 µg/mL with HIV1 IIIb (168 h, read-out: Antiviral Effect (viable cells as % of uninfected controls), run 6, source V (cell free virus), virus kill 50.0%) came out at 43.5%. The viability at 10 µg/mL came out at 49.5% in the assay on HIV1 IIIb (168 h, read-out: Antiviral Effect (viable cells as % of uninfected controls), run 7, source V (cell free virus), virus kill 50.0%); 53.5% in the assay on HIV1 IIIb (H9, 168 h, read-out: Antiviral Effect (viable cells as % of uninfected controls), run 2, source C (virus producing H9 cells), virus kill 17.0%); 61% in the assay on HIV1 IIIb (H9, 168 h, read-out: Antiviral Effect (viable cells as % of uninfected controls), run 3, source C (virus producing H9 cells), virus kill 17.0%); 10.5% in the assay on HIV1 IIIb (H9, 168 h, read-out: Antiviral Effect (viable cells as % of uninfected controls), run 5, source C (virus producing H9 cells), virus kill 10.0%). Further, the viability at 0.1 µg/mL in the assay with HIV1 IIIb (168 h, read-out: Antiviral Effect (viable cells as % of uninfected controls), run 8, source V (cell free virus), virus kill 16.0%) came out at 17.7%; with HIV1 IIIb (168 h, read-out: Antiviral Effect (viable cells as % of uninfected controls), run 9, source V (cell free virus), virus kill 16.0%), 20.6%; in the assay on HIV1 IIIb (H9, 168 h, read-out: Antiviral Effect (viable cells as % of uninfected controls), run 1, source C (virus producing H9 cells), virus kill 18.0%), 21.9%; in the assay on HIV1 IIIb (H9, 168 h, read-out: Antiviral Effect (viable cells as % of uninfected controls), run 4, source C (virus producing H9 cells), virus kill 10.0%), 12.1%. Besides, the viability at 4.1 µg/mL in the assay on HIV1 IIIb (168 h, read-out: Antiviral Effect (viable cells as % of uninfected controls), run 10, 4.1 ug/ml, source V (cell free virus), virus kill 29.0%) came to 28.8%. The viability at 0.004 µg/mL in the assay with HIV1 IIIb (168 h, read-out: Antiviral Effect (viable cells as % of uninfected controls), run 11*, 0.004 ug/ml, source V (cell free virus), virus kill 25.0%, culture redosed with compound after 3 days) was 30%. In addition, in the assay with HIV-2 protease, the “Percent Control Cleavage” value worked out at 78%.

With `CCCCCCCOC[C@H]1O[C@H]1CO` [Example 17], the viability at 11.3 µg/mL in the assay with HIV1 IIIb (168 h, read-out: Antiviral Effect (viable cells as % of uninfected controls), run 4, 11.3 ug/ml, source V (cell free virus), virus kill 40.0%) was found to be 57.6%. Further, the viability at 56.7 µg/mL with HIV1 IIIb (168 h, read-out: Antiviral Effect (viable cells as % of uninfected controls), run 5, source V (cell free virus), virus kill 57.0%) is 102%; in the assay on HIV1 IIIb (setting [1]), 69.2%; with HIV1 IIIb (H9, 168 h, read-out: Antiviral Effect (viable cells as % of uninfected controls), run 2, source C (virus producing H9 cells), virus kill 15.0%), 53.7%; in the assay on HIV1 IIIb (H9, 168 h, read-out: Antiviral Effect (viable cells as % of uninfected controls), run 3, source C (virus producing H9 cells), virus kill 15.0%) it was 83.1%. Also, in the assay on HIV1 IIIb (168 h, read-out: Antiviral Effect (viable cells as % of uninfected controls), run 7*, 1.97 ug/ml, source V (cell free virus), virus kill 28.0%, culture redosed with compound after 3 days), the viability at 1.97 µg/mL was 15.8%. In addition, the viability at 113 µg/mL in the assay with HIV1 IIIb (H9, 168 h, read-out: Antiviral Effect (viable cells as % of uninfected controls), run 1, 113 ug/ml, source C (virus producing H9 cells), virus kill 10.0%) was determined as 31.1%. In addition, the “Percent Control Cleavage” value in the assay on HIV-2 protease came out at 66%.

Turning to `CCCCCCCOC[C@@H]1O[C@@H]1CO` [Example 18, (2R-cis)-3-(Heptyloxymethyl)oxirane Methanol], the viability at 9.65 µg/mL in the assay on HIV1 IIIb (168 h, read-out: Antiviral Effect (viable cells as % of uninfected controls), run 4, 9.65 ug/ml, source V (cell free virus), virus kill 40.0%) stood at 58.8%. The viability at 48.4 µg/mL with HIV1 IIIb (168 h, read-out: Antiviral Effect (viable cells as % of uninfected controls), run 5, source V (cell free virus), virus kill 63.0%) is 89.8%; in the assay on HIV1 IIIb (setting [1]), 49%; in the assay on HIV1 IIIb (H9, 168 h, read-out: Antiviral Effect (viable cells as % of uninfected controls), run 2, source C (virus producing H9 cells), virus kill 16.0%) it was 30.7%. The viability at 2.4 µg/mL in the assay with HIV1 IIIb (168 h, read-out: Antiviral Effect (viable cells as % of uninfected controls), run 7, source V (cell free virus), virus kill 20.0%) is 29.4%; with HIV1 IIIb (168 h, read-out: Antiviral Effect (viable cells as % of uninfected controls), run 8*, source V (cell free virus), virus kill 25.0%, culture redosed with compound after 3 days), 40.2%. The viability at 96.5 µg/mL in the assay with HIV1 IIIb (H9, 168 h, read-out: Antiviral Effect (viable cells as % of uninfected controls), run 1, 96.5 ug/ml, source C (virus producing H9 cells), virus kill 11.0%) turned out to be 38.6%. Further, in the assay with HIV1 IIIb (H9, 168 h, read-out: Antiviral Effect (viable cells as % of uninfected controls), run 3, 4.84 ug/ml, source C (virus producing H9 cells), virus kill 10.0%), the viability at 4.84 µg/mL amounted to 17%. For the same molecule, in the assay with HIV-2 protease, the “Percent Control Cleavage” value was 71%.

(Values after patent US6153589A, “2,3-epoxy alcohols, acids and derivatives as anti retroviral chemotherapeutic agents” (The United States of America as represented by the …, priority 1992, dated 2000).)
